The values that follow come from patent publication US9109041B2, “Analog compounds of analgesic peptides derived from the venom of crotalus durissus terrificus snakes, their uses, compositions, methods of preparation and purification” (priority 2004, dated 2015).

Test [1] relates to carrageenin-induced hyperalgesia. The test can be described thus: rat paw pressure test, carrageenin-induced hyperalgesia. In kind it is in vivo. Particulars: for pain threshold, IM (g) ± S.E.M.: saline + antagonist alone i.pl. (CTOP 20, nor-BNI 50, ICI 174.864 10 μg/paw), before carrageenin; for pain threshold, FM (g) ± S.E.M: saline + antagonist alone i.pl. with carrageenin (CTOP 20, nor-BNI 50, ICI 174.864 10 μg/paw), after carrageenin. The procedure:
The antinociceptive effect of the synthetic peptide was evaluated in the inflammatory hyperalgesia induced by carrageenin. […] Saline, administered by the same route was used as control.
As determined in the PGE2 model, the participation of opioid receptors in the antinociceptive effect of the peptide SEQ ID NO: 2 in the carrageenin-induced hyperalgesia (Table 10) was investigated. Therefore, the animals were treated with CTOP, a specific μ receptor antagonist (20 μg/paw), nor-BNI, a specific κ receptor antagonist (50 μg/paw) or with ICI 174.864, a specific δ receptor antagonist (10 μg/paw), injected by i.pl. route concomitantly to carrageenin. Peptide was administered in the dose of 1 μg/kg, orally, immediately before carrageenin.

In test [2] the test system is prostaglandin E2-induced hyperalgesia. The test can be described thus: rat paw pressure test, prostaglandin E2-induced hyperalgesia. The settings on record: for pain threshold, IM (g) ± S.E.M.: saline p.o. + antagonist alone i.pl. (ICI174,864 10 μg/paw; nor-BNI 50 μg/leg; CTOP 20 μg/leg), before PGE2; for pain threshold, FM (g) ± S.E.M: saline p.o. + antagonist alone i.pl. with PGE2 (ICI174,864 10 μg/paw; nor-BNI 50 μg/leg; CTOP 20 μg/leg), 3 h after PGE2.

Test [3] has as its system allodynia induced by the Walker 256 tumor. As to the kind of experiment: allodynia induced by the Walker 256 tumor (cancer pain). In kind it is in vivo, rat. Particulars: saline + antagonist alone i.pl. (ICI 10, nor-BNI 50, CTOP 20 μg/paw); for paw withdrawal threshold (allodynia), FM / paw withdrawal threshold (allodynia), IM: 5th day; for paw withdrawal threshold (allodynia), FM: 2 hours after treatment; for paw withdrawal threshold (allodynia), IM: before treatment; for paw withdrawal threshold (allodynia), BM: before injection of the tumor. The text has this: (§1) The Walker 256 tumor cells were kindly provided by Prof. Dr. Rui Curi, of the Physiology and Biophysics Department of the Biomedical Science Institute of the University of São Paulo. The tumor-bearing animal was sacrificed and the tumoral tissue was removed, placed on a Petri dish containing 0.9% saline. Then, the tumor was cut in smaller parts, and transferred into a beaker containing saline. The material was triturated with a fine-cut, until the tumor is totally fragmented. Then, this material was filtered in gauze and the liquid collected in a beaker. All procedures were performed on ice. The material of the beaker was transferred to 50 ml plastic tubes and centrifuged at 4° C., for 10 minutes, at 1200 rpm. After centrifugation, the supernatant was rejected and the precipitate resuspended in saline 0.9%. For cell counts, the suspension of cells was diluted (1:100) in saline. An aliquot (200 μl) was removed and placed in a test tube containing 200 μl of 1% Trypan blue. The cell number was determined in optical microscope using Neubauer's chamber. The cellular viability was determined considering viable the light-refracting cells.
(§2) After determining the number of cells, 1 ml of the suspension, containing 1×10^7 cells, was injected by intraperitoneal route, on the right side of the rats to obtain liquid tumor (ascites).
(§3) Five days after injection, the rats with ascites were sacrificed and the ascetic fluid collected from the peritoneal cavity and placed in a test tube containing EDTA. The liquid was diluted 100 times with phosphate-buffered saline (PBS), pH 7.4. The cell count was done after dilution with Trypan blue, as described above. Tumor cell count was ascertained to 1×10^6 cells in 100 μl, by dilution with PBS. This number of cells was determined in preliminary tests for induction of cancer pain in rats. In this final cell number adjustment, the volume of antibiotic (Benzetacil®) added to the suspension (150,000 units of antibiotic/10 ml of suspension), was taken into consideration. The antibiotic was used in order to avoid microbial contamination. The cells were injected by intraplantar route into one of the rat hind paws. Control animals were injected with PBS into the contralateral paw, in the same experimental conditions.
(§4) Hyperalgesia, allodynia and spontaneous pain were determined before (BM-basal measurement) and 5 days after tumor cell injection, before (IM-initial measurement) and 2 hours after (FM-Final measurement) peptide administration.
(§5) The results were analyzed comparing the mean values of the basal and initial measurements, or of the initial and final measurements or, when determined, by comparing the mean values obtained in the different experimental groups (Tables 17, 18, 19).
(§6) For this purpose, the animals were treated with CTOP, a specific μ receptor antagonist (20 μg/paw), nor-BNI, a specific κ receptor antagonist (50 μg/paw) or with ICI 174,864, a specific δ receptor antagonist (10 μg/paw). The antagonists were injected by intraplantar route. The peptide was administered in the dose of 6 μg/kg, orally, immediately before the injection of the opioid antagonists. The results were analyzed comparing the mean values of the basal and initial measurements, or of the initial and final measurements or, when determined, by comparing the mean values obtained in the different experimental groups ( Table 20).

Test [4] has as its system hyperalgesia induced by the Walker 256 tumor. The test can be described thus: hyperalgesia induced by the Walker 256 tumor (cancer pain). Particulars: saline + antagonist alone i.pl. (ICI 10, nor-BNI 50, CTOP 20 μg/paw); for pain threshold, FM / pain threshold, IM: 5th day; for pain threshold, FM: 2 hours after treatment; for pain threshold, IM: before treatment; for pain threshold, BM: before injection of the tumor. The test is classed as in vivo, rat.
Text: as §1, §2, §3, §4, §5, §6

Consider `Oc1ccc2c3c1O[C@H]1c4[nH]c5c(c4C[C@@]4(O)[C@@H](C2)N(CC2CC2)CC[C@]314)C[C@@]1(O)[C@H]2Cc3ccc(O)c4c3[C@@]1(CCN2CC1CC1)[C@H]5O4` [nor-BNI, nor-Binalthorphimine, reference compound], for which, in test [1], the “pain threshold, IM (g) ± S.E.M.” value turned out to be 72 ± 1.12 g and the “pain threshold, FM (g) ± S.E.M” value was 52 ± 2.79 g. Besides, in test [2], the “pain threshold, IM (g) ± S.E.M.” value is on record as 72 ± 1.44 g and the “pain threshold, FM (g) ± S.E.M” value is reported as 56 ± 1.25 g. Besides, in test [3], the “paw withdrawal threshold (allodynia), FM” value was 4.41 ± 0.00 log 10 (mg × 10); the “paw withdrawal threshold (allodynia), IM” value is 4.41 ± 0.00 log 10 (mg × 10); the “paw withdrawal threshold (allodynia), BM” value is 4.97 ± 0.00 log 10 (mg × 10). For the same compound, in test [4], the “pain threshold, FM” value is 32 ± 1.66 g; the “pain threshold, IM” value is on record as 33 ± 3.33 g; the “pain threshold, BM” value is 70 ± 2.88 g.

Regarding CTOP [reference compound], in test [1], the “pain threshold, IM (g) ± S.E.M.” value is 73 ± 1.25 g and the “pain threshold, FM (g) ± S.E.M” value is 49 ± 1.25 g. For the same compound, in test [2], the “pain threshold, IM (g) ± S.E.M.” value is recorded as 74 ± 2.39 g and the “pain threshold, FM (g) ± S.E.M” value is listed as 56 ± 2.39 g. Besides, in test [3], the “paw withdrawal threshold (allodynia), FM” value was 4.41 ± 0.00 log 10 (mg × 10); the “paw withdrawal threshold (allodynia), IM” value is 4.41 ± 0.00 log 10 (mg × 10); the “paw withdrawal threshold (allodynia), BM” value is listed as 4.97 ± 0.00 log 10 (mg × 10). In test [4], the “pain threshold, FM” value came to 32 ± 1.66 g; the “pain threshold, IM” value is recorded as 35 ± 2.88 g; the “pain threshold, BM” value amounted to 68 ± 1.66 g.
